According to US7727961B2, “Antioxidant constituents” (Tokai Bussan Co., Ltd., priority 2004, dated 2010):
Where two headings read alike, the source gives them in different places.

Experiments:
[1] = Inhibition of ovalbumin (Ova) oxidative degradation by ClO radical; settings: for Rank of ClO•-scavenging strength (in words): complete inhibition of protein degradation by 10 mM ClO•, comparison of Table 3; for ClO radical inhibitory concentration: concentration that completely inhibits oxidative degradation of protein by 10 mM ClO•; for Inhibitory action toward proteolysis by ClO radical: Ova; for Inhibition effect on degradation of protein due to ClO radical: 30 min, pH 7.2
Experimental: (§1) ClO•, OH•, and NO3• were prepared as three typical active oxygen species produced in the body. Clo• was prepared using a method wherein sodium hypochlorite was diluted to a pH 6.5 with distilled water, OH• by a partially modified Fenton method (B. Halliwell, et al., Analytical Biochmistry, No. 165, p. 215-219, 1987), and NO3• by a modified quenching flow reactor method (R. Radi, et al., Journal of Biological Chemistry, Vol. 266, p. 4244-4250, 1991). Next, Ova was dissolved in pH 7.2 buffered physiological saline to a concentration of 2.5 mg/mL, each concentration of antioxidant was added at a volume ratio of 10:1 with respect to the protein solution, the solution was let stand for 30 min at room temperature, each concentration of active oxygen was added in the same manner at a volume ratio of 10:1 with respect to protein solution, and ClO• oxidation was performed for 30 min at 37° C., OH• oxidation for 60 min at 37° C., and NO3 oxidation for 120 min at 37° C. After the reaction, sodium dodecylsulfate-polyacrylamide gel electrophoresis (SDS-PAGE) was performed on each sample, the gel was stained with Coomassie blue R250, and the Ova degradation inhibition rate was calculated from the densitometer reading. An accurate degradation inhibition rate was calculated using the following formula from the proteolytic inhibition activity obtained by performing GPC-HPLC using a TSKG-3,000SW column directly on the reacted samples.
(§2) Using the same test methods as described in (1) above, a comparison of inhibitory activity by various natural extracts on the Ova degradation by active oxygen was performed. The concentrations of the natural extracts tested were 5 mg/mL as solids.
The strength of antioxidant activity between peptides with antioxidant activity and sulfur-containing amino acids was compared with respect to ClO•, and between various antioxidants with antioxidant activity with respect to OH•.

[2] = Inhibition of ovalbumin (Ova) oxidative degradation by ONOO radical; settings: for Inhibitory action toward proteolysis by ONOO radical: Ova; for Inhibition effect on degradation of protein due to ONOO radical: 120 min, pH 7.2; for Concentration that completely inhibited the oxidative effect of ONOO•: 5 mM ONOO•
Experimental: as §1, §2

[3] = Inhibition of ovalbumin (Ova) oxidative degradation by OH radical; settings: for Inhibitory action toward proteolysis by OH radical: Ova; for OH radical inhibitory concentration: concentration that completely inhibits the proteolytic action of 10 mM OH•; for Inhibition effect on degradation of protein due to OH radical: 60 min, pH 7.2
Experimental: as §1, §2

human red blood cells = assay: Microchannel (MC) transit capability of human red blood cells damaged by active oxygen; format: cell-based
Experimental: A microchannel (hereinafter, MC), which is a capillary model, is a device that measures hemorheology, i.e., the capability of blood to circulate through capillaries. Factors affecting hemorheology include meals, oxidative stress, etc. In the present invention the effects of the three active oxygen species produced in the body on the MC transit capability of human red blood cells were tested, and the effectiveness of various antioxidants in preventing the harmful effects of active oxygen were compared.
Next, the effectiveness of various antioxidants in preventing the MC transit damage due to various active oxygen species was measured using red blood cells. […] (2.5 mM) as the ONOO•-scavenger were used. These three types were mixed together and used as the antioxidant mixture.
A microchannel (MC), which is a capillary model, is a device that measures hemorheology, i.e., the capability of blood to circulate through capillaries. Factors effecting hemorheology include meals, oxidative stress, etc. In the present Example, the effects of the three active oxygen species produced in the body on the MC transit capability of human red blood cells were tested.
For the test method, blood from healthy human volunteers was subjected a Ficoll-Pague centrifuge (made by Amersham-Pharmacia Biotech) to separate a red blood cell fraction, and the MC transit time of the red blood (final concentration of hematocrit is 10%) treated by various active oxygen species was measured by an MC FAN KH-3A (channel width 7 μm, MC Laboratory, Inc.).

cholesterol in the blood = settings: known from the literature (Herrera-Arellano 2004; Kim 2003); cited from earlier work
[4] = test system: glycated hemoglobin (HbAlc) in the blood; assay: Lowering of glycated hemoglobin in the blood of diabetic model GK rats; format: in vivo; settings: 100 mg/kg orally for 28 days, FIG. 5
Experimental: Using the diabetes model animal GK rats (Y. Ihara, et al. FEBS Letters, Vol. 473, p. 24-26, 2000), the effectiveness of single doses of various antioxidants and combined doses of antioxidants in lowering the level of glycated hemoglobin (HbAlc) in the blood was compared.
As the ClO•-scavenger 200 mg/kg of anserine-carnosine mixture derived from chicken extract, as the OH•-scavenger wheat grass extract (total content of caffeic acid analogues 10 mg/kg), as the ONOO•-scavenger 100 mg/kg of V.C., and a composition containing all three antioxidants were administered orally to the GK rats for 28 days, and the blood HbAlc levels were measured at the end of dosing.

[5] = antioxidant 50 μM, 10 mM OH radical
[6] = antioxidant 50 μM, 10 mM ClO radical
[7] = antioxidant 20 μM, 10 mM OH radical
[8] = antioxidant 20 μM, 10 mM ClO radical
[9] = antioxidant 5 mM, 10 mM OH radical
[10] = antioxidant 5 mM, 10 mM ClO radical

N[C@@H](CCC(=O)N[C@@H](CS)C(=O)NCC(=O)O)C(=O)O [Reduced glutathione, reduced glutathione]
Rank of ClO•-scavenging strength (in words) [1]: most potent
ClO radical inhibitory concentration [1]: 2.5 mM

Oc1cc(O)c2c(c1)OC(c1ccc(O)c(O)c1)C(O)C2 (centres unmarked) [Catechins, catechins]
Concentration showing degradation inhibitory activity against ONOO• [2]: 500 µM
Inhibitory action toward proteolysis by ONOO radical ([2]; antioxidant 50 μM): 58%
Inhibitory action toward proteolysis by OH radical [3, 5]: 100%
OH radical inhibitory concentration [3]: 2.5 µM
Inhibitory action toward proteolysis by ClO radical [1, 6]: 0%

O=C(O)/C=C/c1ccc(O)c(O)c1 [Caffeic acid, caffeic acid]
OH radical inhibitory concentration [3]: 4.0 µM
OH radical inhibitory concentration ([3]; listed as caffeic acid): 2.5 µM

O=c1c(O)c(-c2ccc(O)c(O)c2)oc2cc(O)cc(O)c12 [Quercetin, quercetin]
Inhibitory action toward proteolysis by ONOO radical ([2]; antioxidant 50 μM): 16%
Inhibitory action toward proteolysis by OH radical [3, 5]: 100%
OH radical inhibitory concentration [3]: 2.5 µM
Inhibitory action toward proteolysis by ClO radical [1, 6]: 5%

CSCC[C@H](N)C(=O)O [Methionine, methionine]
Inhibition effect on degradation of protein due to ONOO radical ([2]; 5 mM): 45
Inhibition effect on degradation of protein due to OH radical ([3]; 5 mM): 62
Inhibition effect on degradation of protein due to ClO radical ([1]; 5 mM): 100
ClO radical inhibitory concentration [1]: 5.0 mM

CC1=C(/C=C/C(C)=C/C=C/C(C)=C/C=C/C=C(C)/C=C/C=C(C)/C=C/C2=C(C)CCCC2(C)C)C(C)(C)CCC1 [B-carotene, β-carotene]
Concentration showing degradation inhibitory activity against ONOO• [2]: 10 µM
Inhibitory action toward proteolysis by ONOO radical ([2]; antioxidant 20 μM): 74%
Inhibitory action toward proteolysis by OH radical [3, 7]: 100%
OH radical inhibitory concentration [3]: 0.5 µM
Inhibitory action toward proteolysis by ClO radical [1, 8]: 38%

CC1=C(/C=C/C(C)=C/C=C/C(C)=C/C=C/C=C(C)/C=C/C=C(C)/C=C/C2=C(C)C(=O)[C@@H](O)CC2(C)C)C(C)(C)C[C@H](O)C1=O [Astaxanthin, astaxanthin]
Inhibitory action toward proteolysis by ONOO radical ([2]; antioxidant 20 μM): 28%
Inhibitory action toward proteolysis by OH radical [3, 7]: 100%
OH radical inhibitory concentration [3]: 0.5 µM
Inhibitory action toward proteolysis by ClO radical [1, 8]: 24%

COC1=C(OC)C(=O)C(C/C=C(\C)CC/C=C(\C)CC/C=C(\C)CC/C=C(\C)CC/C=C(\C)CC/C=C(\C)CC/C=C(\C)CC/C=C(\C)CC/C=C(\C)CCC=C(C)C)=C(C)C1=O [CoQ10]
Inhibition effect on degradation of protein due to ONOO radical ([2]; 50 μM): 0
Inhibition effect on degradation of protein due to OH radical ([3]; 50 μM): 100
Inhibition of red blood cell MC transit damage due to OH• (human red blood cells; hematocrit 10%, 10 mM OH radical, FIG. 10): inhibited the damage
Inhibition effect on degradation of protein due to ClO radical ([1]; 50 μM): 0

COc1cc(/C=C/C(=O)O)ccc1O [Ferulic acid, ferulic acid]
Effect of lowering the level of cholesterol in the blood (in words) (cholesterol in the blood): have an effect of lowering the level of cholesterol in the blood
Inhibitory action toward proteolysis by ONOO radical ([2]; antioxidant 50 μM): 34%
Inhibitory action toward proteolysis by OH radical [3, 5]: 100%
OH radical inhibitory concentration [3]: 2.5 µM
Inhibitory action toward proteolysis by ClO radical [1, 6]: 7%

CC(=O)N[C@@H](CS)C(=O)O [N-acetyl-L-cysteine]
Inhibition effect on degradation of protein due to ONOO radical ([2]; 5 mM): 20
Inhibition effect on degradation of protein due to OH radical ([3]; 5 mM): 20
Inhibition effect on degradation of protein due to ClO radical ([1]; 5 mM): 100
Rank of ClO•-scavenging strength (in words) [1]: most potent
ClO radical inhibitory concentration [1]: 2.5 mM

NCCC(=O)N[C@@H](Cc1cnc[nH]1)C(=O)O [Carnosine, carnosine]
ClO radical inhibitory concentration [1]: 5.0 mM

Cn1cncc1C[C@H](NC(=O)CCN)C(=O)O [Anserine, anserine]
ClO radical inhibitory concentration [1]: 5.0 mM

O=C1O[C@H]([C@@H](O)CO)C([O-])=C1O.[Na+] [sodium V.C.]
Concentration that completely inhibited the oxidative effect of ONOO• [2]: 1 mM

N[C@@H](CS(=O)(=O)O)C(=O)O [Cysteic acid, cysteic acid]
ClO radical inhibitory concentration [1]: 7.5 mM

O=C(O[C@@H]1Cc2c(O)cc(O)cc2O[C@@H]1c1cc(O)c(O)c(O)c1)c1cc(O)c(O)c(O)c1 [Epigallocatechin gallate, epigallocatechin gallate]
Concentration showing degradation inhibitory activity against ONOO• ([2]; FIG. 1, said to exceed physiologically relevant concentrations): 500 µM
Concentration at which oxidative degradation of Ova by OH• was completely inhibited ([3]; FIG. 1, 10 mM OH radical, tested concentration): 5 µM
OH radical inhibitory concentration [3]: 2.5 µM
Inhibition of red blood cell MC transit damage due to OH• (human red blood cells; antioxidant 50 μM, FIG. 4): completely inhibited
Inhibition of Ova oxidative degradation by ClO• (in words) ([1]; FIG. 1, 10 mM ClO radical, β-carotene 20 μM, EGCG 500 μM): faint inhibitory activity

Cc1c(C)c2c(c(C)c1O)CC[C@@](C)(CCC[C@H](C)CCC[C@H](C)CCCC(C)C)O2 [Vitamin E, α-tocopherol]
Inhibitory action toward proteolysis by ONOO radical ([2]; antioxidant 5 mM): 22%
Inhibitory action toward proteolysis by OH radical [3, 9]: 98%
Rank of OH•-scavenging strength (in words) ([3]; complete inhibition of proteolysis by 10 mM OH•, comparison of Table 4): weakest antioxidant activity
OH radical inhibitory concentration [3]: 2500 µM
Antioxidant activity against OH• (inhibition of proteolysis) relative to astaxanthin ([3]; fraction of the activity of the carotenoid astaxanthin): approximately 1/5000
Inhibitory action toward proteolysis by ClO radical [1, 10]: 0%

N[C@@H](CS)C(=O)O [Cysteine, L-cysteine]
Inhibition effect on degradation of protein due to ONOO radical ([2]; 5 mM): 22
Inhibition effect on degradation of protein due to OH radical ([3]; 5 mM): 15
Inhibition effect on degradation of protein due to ClO radical ([1]; 5 mM): 100
Rank of ClO•-scavenging strength (in words) [1]: most potent
ClO radical inhibitory concentration [1]: 2.5 mM

O=C(/C=C/c1ccc(O)c(O)c1)O[C@@H]1C[C@](O)(C(=O)O)C[C@@H](O)[C@H]1O [Chlorogenic acid, chlorogenic acid]
Effect of lowering the level of cholesterol in the blood (in words) (cholesterol in the blood): have an effect of lowering the level of cholesterol in the blood

alliin
ClO radical inhibitory concentration [1]: 7.5 mM

O=C1O[C@H]([C@@H](O)CO)C(O)=C1O [Vitamin C, L-ascorbic acid]
Decrease of blood HbAlc level [4]: 0.3%
Concentration that completely inhibited the oxidative effect of ONOO• [2]: 1 mM
Inhibitory action toward proteolysis by ONOO radical ([2]; antioxidant 5 mM): 100%
Inhibitory action toward proteolysis by OH radical [3, 9]: 0%
Inhibition of red blood cell MC transit damage due to ONOO• (human red blood cells; hematocrit 10%, 5 mM ONOO radical, FIG. 10): inhibited the damage
Inhibitory action toward proteolysis by ClO radical [1, 10]: 67%
